Among the data in patent publication US8202885B2, “Bridged six-membered ring compounds” (Actelion Pharmaceuticals Ltd., priority 2007, dated 2012) are IC50 values, retold here.

Structures are written as SMILES.

The test system of the test is human Cav3.1 Cav3.2 or Cav3.3 channel. Kind of test: In vitro assay T channel (FLIPR calcium fluorescence). The note with it: HEK293 cells expressing human Cav3.1, Cav3.2 or Cav3.3; 10 mM Ca2+-induced fluo-4 fluorescence; determined up to 10 μM; read-out: T channel antagonistic activity IC50. The test is classed as cell-based. A digest of the protocol: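 HEK293 cells stably expressing human Cav3.1, Cav3.2 or Cav3.3 loaded with fluo-4 AM (3 μM), preincubated 3 min with antagonist, then stimulated with 10 mM Ca2+ in TEA-chloride/HEPES buffer pH 7.2. FLIPR fluorescence read every 2 s for 8 min; IC50 from peak area versus vehicle, tested up to 10 μM.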
What is called IC50 is the concentration that gives 50% inhibition. In the case of `CO[C@]1(c2ccccc2)C[C@H]2CC[C@@H]1C[C@@]2(O)CCN(C)CCCc1nc2ccccc2[nH]1` (relative stereo) [Example 76, rac-(1R*,2R*,4R*,5R*)-2-(2-{[3-(1H-Benzoimidazol-2-yl)-propyl]-methyl-amino}-ethyl)-5-methoxy-5-phenyl-bicyclo[2.2.2]octan-2-ol], the half-maximal inhibitory concentration (IC50) is greater than 10 µM.
The figure for `CO[C@]1(c2ccccc2)C[C@H]2CC[C@@H]1C[C@]2(CCN(C)CCCc1nc2ccccc2[nH]1)OC(=O)C(C)C` (relative stereo) [Example 76A, rac-Isobutyric acid (1R*,2R*,4R*,5R*)-2-(2-{[3-(1H-benzoimidazol-2-yl)-propyl]-methyl-amino}-ethyl)-5-methoxy-5-phenyl-bicyclo[2.2.2]oct-2-yl ester] is 2.12 µM; for `CO[C@@]1(c2ccccc2)C[C@H]2CC[C@@H]1C[C@]2(O)CCN(C)CCCc1nc2ccccc2[nH]1` (relative stereo) [Example 77, rac-(1R*,2S*,4R*,5S*)-2-(2-{[3-(1H-Benzoimidazol-2-yl)-propyl]-methyl-amino}-ethyl)-5-methoxy-5-phenyl-bicyclo[2.2.2]octan-2-ol] it is 9.1 µM.
Turning to `CO[C@@]1(c2ccccc2)C[C@H]2CC[C@@H]1C[C@@]2(CCN(C)CCCc1nc2ccccc2[nH]1)OC(=O)C(C)C` (relative stereo) [Example 77A, rac-Isobutyric acid (1R*,2S*,4R*,5S*)-2-(2-{[3-(1H-benzoimidazol-2-yl)-propyl]-methyl-amino}-ethyl)-5-methoxy-5-phenyl-bicyclo[2.2.2]oct-2-yl ester], the IC50 amounted to 2.63 µM.
On to `CO[C@@]1(c2ccccc2)C[C@H]2CC[C@@H]1C[C@@]2(O)CCN(C)CCCc1nc2ccccc2[nH]1` (relative stereo) [Example 78, rac-(1R*,2R*,4R*,5S*)-2-(2-{[3-(1H-Benzoimidazol-2-yl)-propyl]-methyl-amino}-ethyl)-5-methoxy-5-phenyl-bicyclo[2.2.2]octan-2-ol], for which the IC50 is greater than 10 µM.
The figure for `CN(CCCc1nc2ccccc2[nH]1)CC[C@]1(O)C[C@H]2CC[C@@H]1C[C@@]21OCc2ccccc21` (relative stereo) [Example 79, rac-(1R*,2R*,4R*,5R*)-5-(2-{[3-(1H-Benzoimidazol-2-yl)-propyl]-methyl-amino}-ethyl)-3′H-spiro(bicyclo[2.2.2]octane-2,1′-isobenzofuran)-5-ol] is 2.92 µM; for `CC(C)C(=O)O[C@@]1(CCN(C)CCCc2nc3ccccc3[nH]2)C[C@H]2CC[C@@H]1C[C@@]21OCc2ccccc21` (relative stereo) [Example 79A, rac-Isobutyric acid (1R*,2R*,4R*,5R*)-5-(2-{[3-(1H-benzoimidazol-2-yl)-propyl]-methyl-amino}-ethyl)-3′H-spiro(bicyclo[2.2.2]octane-2,1′-isobenzofuran)-5-yl ester] it is 9.47 µM; for `CN(CCCc1nc2ccccc2[nH]1)CC[C@]1(O)C[C@H]2CC[C@@H]1C[C@]21OCc2ccccc21` (relative stereo) [Example 80, rac-(1R*,2S*,4R*,5R*)-5-(2-{[3-(1H-Benzoimidazol-2-yl)-propyl]-methyl-amino}-ethyl)-3′H-spiro(bicyclo[2.2.2]octane-2,1′-isobenzofuran)-5-ol] it is 3.71 µM.
Consider `CC(C)C(=O)O[C@@]1(CCN(C)CCCc2nc3ccccc3[nH]2)C[C@H]2CC[C@@H]1C[C@]21OCc2ccccc21` (relative stereo) [Example 80A, rac-Isobutyric acid (1R*,2S*,4R*,5R*)-5-(2-{[3-(1H-benzoimidazol-2-yl)-propyl]-methyl-amino}-ethyl)-3′H-spiro(bicyclo[2.2.2]octane-2,1′-isobenzofuran)-5-yl ester], for which the IC50 was 4.18 µM.
Turning to `CN(CCCc1nc2ccccc2[nH]1)CCC1(O)CC2CCC1C=C2c1ccccc1` (single isomer, unassigned) [Example 11, (1R,2R,4R)-2-(2-{[3-(1H-Benzoimidazol-2-yl)-propyl]-methyl-amino}-ethyl)-5-phenyl-bicyclo[2.2.2]oct-5-en-2-ol or (1S,2S,4S)-2-(2-{[3-(1H-benzoimidazol-2-yl)-propyl]-methyl-amino}-ethyl)-5-phenyl-bicyclo[2.2.2]oct-5-en-2-ol], the IC50 is greater than 10 µM.
The result for `CN(CCCc1nc2ccccc2[nH]1)CCC1(O)CC2CCC1C=C2c1ccccc1` (single isomer, unassigned) [Example 12, (1R,2R,4R)-2-(2-{[3-(1H-Benzoimidazol-2-yl)-propyl]-methyl-amino}-ethyl)-5-phenyl-bicyclo[2.2.2]oct-5-en-2-ol or (1S,2S,4S)-2-(2-{[3-(1H-benzoimidazol-2-yl)-propyl]-methyl-amino}-ethyl)-5-phenyl-bicyclo[2.2.2]oct-5-en-2-ol] reads greater than 10 µM.
The result for `CC(C)C(=O)OC1(CCN(C)CCCc2nc3ccccc3[nH]2)CC2CCC1C=C2c1ccccc1` [Example 11A, Isobutyric acid (1R,2R,4R)-2-(2-{[3-(1H-benzoimidazol-2-yl)-propyl]-methyl-amino}-ethyl)-5-phenyl-bicyclo[2.2.2]oct-5-en-2-yl ester or isobutyric acid (1S,2S,4S)-2-(2-{[3-(1H-benzoimidazol-2-yl)-propyl]-methyl-amino}-ethyl)-5-phenyl-bicyclo[2.2.2]oct-5-en-2-yl ester] reads 4.65 µM; that for `CC(C)C(=O)OC1(CCN(C)CCCc2nc3ccccc3[nH]2)CC2CCC1C=C2c1ccccc1` [Example 12A, Isobutyric acid (1R,2R,4R)-2-(2-{[3-(1H-benzoimidazol-2-yl)-propyl]-methyl-amino}-ethyl)-5-phenyl-bicyclo[2.2.2]oct-5-en-2-yl ester or isobutyric acid (1S,2S,4S)-2-(2-{[3-(1H-benzoimidazol-2-yl)-propyl]-methyl-amino}-ethyl)-5-phenyl-bicyclo[2.2.2]oct-5-en-2-yl ester], 4.23 µM; that for `COc1cccc2[nH]c(CCCN(C)CCC3(OC(=O)C(C)C)CC4CCC3C=C4c3ccccc3)nc12` [Example 54A, Isobutyric acid (1R,2R,4R)-2-(2-{[3-(4-methoxy-1H-benzoimidazol-2-yl)-propyl]-methyl-amino}-ethyl)-5-phenyl-bicyclo[2.2.2]oct-5-en-2-yl ester or isobutyric acid (1S,2S,4S)-2-(2-{[3-(4-methoxy-1H-benzoimidazol-2-yl)-propyl]-methyl-amino}-ethyl)-5-phenyl-bicyclo[2.2.2]oct-5-en-2-yl ester], 1.14 µM.
The result for `COc1cccc2[nH]c(CCCN(C)CCC3(OC(=O)C(C)C)CC4CCC3C=C4c3ccccc3)nc12` [Example 55A, Isobutyric acid (1R,2R,4R)-2-(2-{[3-(4-methoxy-1H-benzoimidazol-2-yl)-propyl]-methyl-amino}-ethyl)-5-phenyl-bicyclo[2.2.2]oct-5-en-2-yl ester or isobutyric acid (1S,2S,4S)-2-(2-{[3-(4-methoxy-1H-benzoimidazol-2-yl)-propyl]-methyl-amino}-ethyl)-5-phenyl-bicyclo[2.2.2]oct-5-en-2-yl ester] reads 1.07 µM.
